Experimental data as given in US9029389B2 (Institut Pasteur Korea, priority 2011, dated 2015).

Target: T1, Human 5-lipoxygenase (Homo sapiens, UniProt P09917)
T1 construct: purchased Cayman 60402; host or cells: insect cells
T1 sequence (P09917 1-674): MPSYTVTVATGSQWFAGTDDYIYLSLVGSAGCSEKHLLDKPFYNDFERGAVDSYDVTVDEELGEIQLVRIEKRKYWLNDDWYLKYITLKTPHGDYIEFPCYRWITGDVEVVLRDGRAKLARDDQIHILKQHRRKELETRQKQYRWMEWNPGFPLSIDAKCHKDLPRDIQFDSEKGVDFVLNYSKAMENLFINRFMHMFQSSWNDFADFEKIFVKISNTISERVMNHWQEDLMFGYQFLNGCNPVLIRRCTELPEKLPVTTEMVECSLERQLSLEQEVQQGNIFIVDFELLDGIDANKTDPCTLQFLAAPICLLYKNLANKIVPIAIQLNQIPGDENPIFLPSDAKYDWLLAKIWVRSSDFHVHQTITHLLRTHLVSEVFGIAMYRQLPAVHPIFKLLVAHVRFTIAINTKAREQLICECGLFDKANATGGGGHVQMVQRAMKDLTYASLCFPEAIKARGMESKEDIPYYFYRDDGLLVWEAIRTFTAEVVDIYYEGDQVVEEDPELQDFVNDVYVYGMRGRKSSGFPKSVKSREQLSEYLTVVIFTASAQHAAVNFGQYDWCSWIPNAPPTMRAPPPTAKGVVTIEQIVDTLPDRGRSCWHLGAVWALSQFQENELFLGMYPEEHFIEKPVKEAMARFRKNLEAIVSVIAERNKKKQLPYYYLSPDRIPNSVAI
Assay: Activity of compounds against 5-LO enzyme (LTB4 measurement and/or fluorescence method)
Type: biochemical
Conditions: 5-LO, single concentration of 10 uM in duplicate
Method: The activity of compounds against 5-LO were determined by measuring LTB4 (leukotriene B4) levels and/or by a fluorescence method. Both approaches are outlined in more detail below;
Human 5-lipoxygenase (Cayman, Cat#60402) produced in insect cells was pre-incubated with compound for 15 min at RT in incubation buffer (50 mM Tris-Cl, pH 7.4, 2 mM CaCl2, 0.1 mM ATP, 1% DMSO). The enzymatic reaction was started by adding arachidonic acid to a final concentration of 3 uM. After 5 min of incubation at 37° C., the reaction was stopped by heatinactivation at 80° C. for 5 min. LTB4 levels were quantified by using LTB4 EIA kit (Cayman, Cat#520111) as instructed and/or LTB4 levelswere measured with LC/MS/MS using Quattro Premier™ XE tandem quadrupole mass spectrometer equipped with Acquity UPLC system (Waters, Milford, Mass.). The method was slightly modified as reported previously (Zweifel et al., 2008, Willey et al., 2008, Chappell et al, 2011). Briefly, chromatographic separation was carried out with Acquity UPLC BEH Shield RP18 Column (2.1 mm×50 mm, 1.7 μm particle size, Waters, Milford, Mass.). Sample injection volume was 10 μl, the column temperature was 35° C., the mobile phase A consisted of water with 0.1% formic acid and the mobile phase B consisted of acetonitrile with 0.1% formic acid. Flow rate was 0.4 mL/min and the gradient condition was as follows.
Relative quantification of LTB4 and LTB4-d4 (Internal Standard) was done using multi reaction monitoring (MRM) of the transitions of m/z 335→195 for LTB4, 339→197 for LTB4-d4 in electrospray ionization (ESI) negative mode. Desolvation temperature was 400° C., source temperature was 130° C. Capillary voltage, cone voltage, and collision voltage were 3.5 kV, 30V, and 20 eV, respectively. Nitrogen was used for desolvation (750 L/h) and cone (50 L/h) gas. Argon was used for collision gas (0.22 ml/min). The dwell time was 10 ms.
Besides the two methods quantifying LTB4 level, a fluorescence assay measuring 5-HpETE was introduced for high-throughput screening in a 384 well microplate format (Pufahl et al., 2007). For nonspecific ester cleavage of the acetate groups in H2DCFDA, the insect cell lysate expressing human 5-LO (Cayman Cat#60402) was incubated with H2DCFDA (50 mM Tris-Cl, pH 7.5, 2 mM CaCl2, 20 uM H2DCFDA, 500 mU 5-LO per reaction) for 5 minutes. Compound and enzyme mixture were pre-incubated for 5 minutes, and the enzymatic reaction was initiated by addition of ATP and arachidonic acid to a final concentration of 100 uM and 3 uM, respectively. After 5 minutes of incubation, the fluorescence was measured using Spectramax M5 (Molecular Device, Ex/Em=485 nm/530 nm). All steps were carried out at room temperature.
A total of 378 compounds were initially tested at a single concentration of 10 uM in duplicate with the results summarized in Table 1. From these 378 compounds, 53 compounds plus an additional 25 were selected for confirmation of activity by 6 or 11 point dose response in duplicate with the corresponding IC50 values outlined in Table 2.

Row | Structure (SMILES) | inhibition at 10 µM [%]
1 | Cc1nc2ccccn2c1C(=O)NCc1ccc(Oc2ccccc2)cc1 [compound 6, 2-Methyl-N-(4-phenoxybenzyl)imidazo[1,2-a]pyridine-3-carboxamide] | < 40
2 | COc1ccc(CCNC(=O)c2c(C)nc3ccccn23)cc1 [compound 8, N-(4-Methoxyphenethyl)-2-methylimidazo[1,2-a]pyridine-3-carboxamide] | < 40
3 | Cc1nc2ccccn2c1C(=O)NCC1CCN(C(=O)OC(C)(C)C)CC1 [compound 10, tert-Butyl 4-((2-methylimidazo[1,2-a]pyridine-3-carboxamido)methyl)piperidine-1-carboxylate] | < 40
4 | Cc1nc2ccccn2c1C(=O)Nc1ccc(Oc2ccccc2)cc1 [compound 13, 2-Methyl-N-(4-phenoxyphenyl)imidazo[1,2-a]pyridine-3-carboxamide] | < 40
5 | Cc1nc2ccccn2c1C(=O)Nc1ccc(OCc2ccccc2)cc1 [compound 14, N-(4-(Benzyloxy)phenyl)-2-methylimidazo[1,2-a]pyridine-3-carboxamide] | < 40
6 | Cc1nc2c(Cl)cccn2c1C(=O)NCc1ccccc1 [compound 15, N-Benzyl-8-chloro-2-methylimidazo[1,2-a]pyridine-3-carboxamide] | < 40
7 | Cc1nc2cc(Cl)ccn2c1C(=O)NCc1ccccc1 [compound 16, N-Benzyl-7-chloro-2-methylimidazo[1,2-a]pyridine-3-carboxamide] | < 40
8 | Cc1nc2ccc(Cl)cn2c1C(=O)NCc1ccccc1 [compound 17, N-Benzyl-6-chloro-2-methylimidazo[1,2-a]pyridine-3-carboxamide] | < 40
9 | CCOC(=O)c1c(C)nc2cc(-c3ccccc3)ccn12 [compound 18, Ethyl 2-methyl-7-phenylimidazo[1,2-a]pyridine-3-carboxylate] | 40 to 69
10 | Cc1nc2ccccn2c1C(=O)NCc1ccc(-c2ccccc2)cc1 [compound 20, N-(Biphenyl-4-ylmethyl)-2-methylimidazo[1,2-a]pyridine-3-carboxamide] | 40 to 69
11 | Cc1nc2ccccn2c1C(=O)NCc1ccc2[nH]ccc2c1 [compound 21, N-((1H-Indol-5-yl)methyl)-2-methylimidazo[1,2-a]pyridine-3-carboxamide] | < 40
12 | Cc1nc2cc(-c3ccccc3)ccn2c1C(=O)NCc1ccccc1 [compound 22, N-Benzyl-2-methyl-7-phenylimidazo[1,2-a]pyridine-3-carboxamide] | 40 to 69
13 | COC(=O)[C@H](Cc1ccccc1)NC(=O)c1c(C)nc2ccccn12 [compound 23, (S)-Methyl 2-(2-methylimidazo[1,2-a]pyridine-3-carboxamido)-3-phenylpropanoate] | < 40
14 | COC(=O)c1ccc(CNC(=O)c2c(C)nc3ccccn23)cc1 [compound 25, Methyl 4-((2-methylimidazo[1,2-a]pyridine-3-carboxamido)methyl)benzoate] | < 40
15 | CCOC(=O)c1c(C)nc2ccc(-c3ccccc3)cn12 [compound 27, Ethyl 2-methyl-6-phenylimidazo[1,2-a]pyridine-3-carboxylate] | 40 to 69
16 | Cc1nc2ccccn2c1C(=O)NCCOCc1ccccc1 [compound 29, N-(2-(Benzyloxy)ethyl)-2-methylimidazo[1,2-a]pyridine-3-carboxamide] | < 40
17 | Cc1nc2ccc(C#N)cn2c1C(=O)NCc1ccccc1 [compound 30, N-Benzyl-6-cyano-2-methylimidazo[1,2-a]pyridine-3-carboxamide] | < 40
18 | Cc1nc2c(C)cccn2c1C(=O)NCc1ccccc1 [compound 31, N-Benzyl-2,8-dimethylimidazo[1,2-a]pyridine-3-carboxamide] | < 40
19 | Cc1ccn2c(C(=O)NCc3ccccc3)c(C)nc2c1 [compound 32, N-Benzyl-2,7-dimethylimidazo[1,2-a]pyridine-3-carboxamide] | < 40
20 | Cc1ccc2nc(C)c(C(=O)NCc3ccccc3)n2c1 [compound 33, N-Benzyl-2,6-dimethylimidazo[1,2-a]pyridine-3-carboxamide] | < 40
21 | Cc1nc2cccc(C)n2c1C(=O)NCc1ccccc1 [compound 34, N-Benzyl-2,5-dimethylimidazo[1,2-a]pyridine-3-carboxamide] | 40 to 69
22 | Cc1nc2c(F)cccn2c1C(=O)NCc1ccccc1 [compound 35, N-Benzyl-8-fluoro-2-methylimidazo[1,2-a]pyridine-3-carboxamide] | < 40

Continued, values first:

Row | inhibition at 10 µM [%] | Structure (SMILES)
23 | < 40 | CCOC(=O)c1c(C)nc2ccccn12 [compound 1, Ethyl 2-methylimidazo[1,2-a]pyridine-3-carboxylate]
24 | < 40 | Cc1nc2ccccn2c1C(=O)O [compound 2, 2-Methylimidazo[1,2-a]pyridine-3-carboxylic acid]
25 | < 40 | Cc1nc2ccccn2c1C(=O)NCc1ccccc1 [compound 3, N-Benzyl-2-methylimidazo[1,2-a]pyridine-3-carboxamide]
26 | < 40 | Cc1nc2ccccn2c1C(=O)NCc1ccc(F)cc1 [compound 4, N-(4-Fluorobenzyl)-2-methylimidazo[1,2-a]pyridine-3-carboxamide]
27 | < 40 | Cc1nc2ccccn2c1C(=O)NCc1cccnc1 [compound 5, 2-Methyl-N-(pyridin-3-ylmethyl)imidazo[1,2-a]pyridine-3-carboxamide]
28 | < 40 | COc1ccc(CNC(=O)c2c(C)nc3ccccn23)cc1 [compound 7, N-(4-Methoxybenzyl)-2-methylimidazo[1,2-a]pyridine-3-carboxamide]
29 | < 40 | Cc1nc2ccccn2c1C(=O)NCC1CCCCC1 [compound 9, N-(Cyclohexylmethyl)-2-methylimidazo[1,2-a]pyridine-3-carboxamide]
30 | < 40 | Cc1nc2ccccn2c1C(=O)Nc1ccncc1 [compound 11, 2-Methyl-N-(pyridin-4-yl)imidazo[1,2-a]pyridine-3-carboxamide]
31 | < 40 | Cc1nc2ccccn2c1C(=O)NCCc1ccccc1 [compound 12, 2-Methyl-N-phenethylimidazo[1,2-a]pyridine-3-carboxamide]
32 | < 40 | Cc1nc2cc(-c3ccccc3)ccn2c1C(=O)O [compound 19, 2-Methyl-7-phenylimidazo[1,2-a]pyridine-3-carboxylic acid]
33 | < 40 | Cc1nc2ccccn2c1C(=O)NCC1CCNCC1 [compound 24, 2-Methyl-N-(piperidin-4-ylmethyl)imidazo[1,2-a]pyridine-3-carboxamide]
34 | < 40 | Cc1nc2ccccn2c1C(=O)NCc1ccc(C(=O)O)cc1 [compound 26, 4-((2-Methylimidazo[1,2-a]pyridine-3-carboxamido)methyl)benzoic acid]
35 | < 40 | Cc1nc2ccccn2c1C(=O)NCCOc1ccccc1 [compound 28, 2-Methyl-N-(2-phenoxyethyl)imidazo[1,2-a]pyridine-3-carboxamide]
